Measurements reported in patent US20170114021A1, “HALOGEN-SUBSTITUTED COMPOUNDS” (priority 2014, published 2017).

Assays:
Format in all cases: in vivo
Boophilus microplus = Boophilus microplus injection test (BOOPMI Inj); details: application rate 4 μg/animal; injection into abdomen
Protocol: Boophilus microplus—Injection Test (BOOPMI Inj) Solvent: dimethyl sulphoxide
To produce a suitable preparation of active compound, 10 mg of active compound are mixed with 0.5 ml of solvent and the concentrate is diluted with solvent to the desired concentration.
1 μl of the active compound solution is injected into the abdomen of 5 engorged adult female cattle ticks (Boophilus microplus). The animals are transferred into dishes and kept in a climate-controlled room.
The activity is assessed after the desired time by laying of fertile eggs. Eggs which are not visibly fertile are stored in a climate-controlled cabinet until the larvae hatch after about 42 days. An efficacy of 100% means that none of the ticks has laid any fertile eggs; 0% means that all the eggs are fertile.

Rhipicephalus sanguineus = Rhipicephalus sanguineus in vitro contact test; details: application rate 5 μg/cm^2; adult dog ticks; after 48 h
Protocol: Rhipicephalus sanguineus—In Vitro Contact Tests
For the coating of the test tubes, 9 mg of active compound are first dissolved in 1 ml of acetone p.a. and then diluted to the desired concentration with acetone p.a. 250 μl of the solution are distributed homogeneously on the inner walls and the base of a 25 ml test tube by turning and rocking on an orbital shaker (rocking rotation at 30 rpm for 2 h). With 900 ppm active compound solution and internal surface 44.7 cm^2, given homogeneous distribution, an area-based dose of 5 μg/cm^2 is achieved.
After the solvent has evaporated off, the tubes are populated with 5-10 adult dog ticks (Rhipicephalus sanguineus), sealed with a perforated plastic lid and incubated in a horizontal position in the dark at room temperature and ambient humidity. After 48 h, efficacy is determined. To this end, the ticks are knocked to the floor of the tube and incubated on a hotplate at 45-50° C. for not more than 5 min. Ticks which remain motionless on the floor or move in such an uncoordinated manner that they are unable to deliberately avoid the heat by climbing upwards are considered to be dead or moribund.
An efficacy of 100% means that all the ticks were dead or moribund. 0% efficacy means that none of the ticks had been harmed.

[1] = tested on: Boophilus microplus Parkhurst strain, SP-resistant; experiment: Boophilus microplus dip test (BOOPMI Dip); details: application rate 20 ppm; engorged adult female cattle ticks; after 7 days
Protocol: Boophilus microplus—Dip Test (BOOPMI Dip) Test animals: cattle ticks (Boophilus microplus) Parkhurst strain, SP-resistant Solvent: dimethyl sulphoxide
10 mg of active compound are dissolved in 0.5 ml of dimethyl sulphoxide. To produce a suitable formulation, the active compound solution is diluted with water to the concentration desired in each case.
This active compound preparation is pipetted into tubes. 8-10 engorged adult female cattle ticks (Boophilus microplus) are transferred into a further tube with holes. The tube is immersed into the active compound preparation, and all the ticks are completely wetted. After the liquid has run out, the ticks are transferred on filter discs into plastic dishes and stored in a climate-controlled room.
Efficacy is assessed after 7 days by laying of fertile eggs. Eggs which are not visibly fertile are stored in a climate-controlled cabinet until the larvae hatch after about 42 days. An efficacy of 100% means that none of the ticks has laid any fertile eggs; 0% means that all the eggs are fertile.

N-{2-fluoro-5-[2′-methyl-5′-(pentafluoroethyl)-4′-(trifluoromethyl)-2′H-1,3′-bipyrazol-4-yl]benzyl}propanamide [Ic-1]
100%: efficacy (laying of fertile eggs) (Boophilus microplus) | efficacy (Rhipicephalus sanguineus) | efficacy (laying of fertile eggs) [1]
